Laboratory results published in patent US20230212164A1, “ANNULATED 2-AMINO-3-CYANO THIOPHENES AND DERIVATIVES FOR THE TREATMENT OF CANCER” (BOEHRINGER INGELHEIM INTERNATIONAL GMBH, priority 2020, published 2023).
Read-outs that look alike come from different tables or passages of the source.

Legend:
[1] = molecular target: T1, protein-protein interaction between SOS1 and KRAS G12C (Homo sapiens, UniProt P01116, C118S/C51S/C80L/G12C); assay: KRAS::SOS1 AlphaScreen binding assay
T1 construct: His6 (N)
Protocol: KRAS::SOS1 AlphaScreen Binding Assay
Assay buffer: • 1×PBS • 0.1% BSA • 0.05% Tween 20
AlphaLISA Glutathione Acceptor Beads and AlphaScreen Streptavidin Donor Beads are mixed in assay buffer at a concentration of 10 μg/mL (final assay concentration) each prior to use and kept at room temperature.
Compounds are diluted to a final start concentration of 100 μM and are tested in duplicate. […] For compound a start concentration of 100 μM, 150 nL of compound solution is transferred per well in 11 concentrations in duplicate with serial 1:5 dilutions.
The assay is run using a fully automated robotic system in a darkened room below 100 Lux. 10 μL of KRAS::SOS1 GDP mix is added into columns 1-24 to the 150 nL of compound solution (final dilution in the assay 1:100, final DMSO concentration 1%).
After 30 minutes incubation time 5 μL of bead mix is added into columns 1-23. Plates are kept at room temperature in a darkened incubator. After further 60 minutes incubation, the signal is measured using a PerkinElmer Envision HTS Multilabel Reader using the AlphaScreen specifications from PerkinElmer. Each plate contains the following controls: • diluted DMSO+KRAS::SOS1 GDP mix+bead mix • diluted DMSO+KRAS::SOS1 GDP mix
IC50 values are calculated and analyzed using a 4 parametric logistic model.

[2] = system: pERK (Thr202/Tyr204) in NCI-H358 (KRAS G12C mutation); assay: ERK phosphorylation assay 1 (AlphaLISA SureFire Ultra p-ERK1/2)
Protocol: ERK Phosphorylation Assay
Materials Used for the Assay:
AlphaLISA SureFire Ultra p-ERK1/2 (Thr202/Tyr204) Assay Kit (ALSU-PERK-A500)
The cells are incubated for 1 h at room temperature and then incubated overnight in an incubator at 37° C. and 5% CO2 in a humidified atmosphere. 60 nL compound solution (10 mM DMSO stock solution) is then added using a Labcyte Echo 550 device. […] After 20 minutes of incubation at room temperature with shaking, 6 μL of each lysate sample is transferred to a 384-well Proxiplate and analyzed for pERK (Thr202/Tyr204) with the AlphaLISA SureFire Ultra pERK1/2 (Thr202/Tyr204) Assay Kit. 3 μL Acceptor Mix and 3 μL Donor Mix are added under subdued light and incubated for 2 h at room temperature in the dark, before the signal is measured on a PerkinElmer Envision HTS Multilabel Reader. The raw data were imported into and analyzed with the Boehringer Ingelheim proprietary software MegaLab (curve fitting based on the program PRISM, GraphPad Inc.).

[3] = molecular target: KRASG12-dependent Ba/F3 cells (Homo sapiens, UniProt P01116, G12C, cells depend on it); assay: Ba/F3 cell model proliferation assay (AlamarBlue, 72 h); type: cell-based; settings: Ba/F3 cells transduced with KRASG12C, read-out: IC50 Ba/F3 KRASG12C
Protocol: Ba/F3 Cell Model Generation and Proliferation Assay
Plasmids containing KRASG12 mutants were obtained from GeneScript. To generate KRASG12-dependent Ba/F3 models, Ba/F3 cells were transduced with retroviruses containing vectors that harbor KRASG12 isoforms. Platinum-E cells (Cell Biolabs) were used for retrovirus packaging. Retrovirus was added to Ba/F3 cells. To ensure infection, 4 μg/mL polybrene was added and cells were spinfected. […] Cells with an infection efficiency of 10% to 20% were further cultivated and puromycin selection with 1 μg/mL was initiated. As a control, parental Ba/F3 cells were used to show selection status. Selection was considered successful when parental Ba/F3 cells cultures died. To evaluate the transforming potential of KRASG12 mutations, the growth medium was no longer supplemented with IL-3. Ba/F3 cells harboring the empty vector were used as a control. Approximately ten days before conducting the experiments, puromycin was left out.
All treatments were performed in technical duplicates. The assay is run using a fully automated robotic system. Treated cells were incubated for 72 h at 37° C. with 5% CO2.
AlamarBlue™ (ThermoFisher), a viability stain, was added and fluorescence measured in the PerkinElmer Envision HTS Multilabel Reader.

[4] = Homo sapiens, NCI-H358, read-out: IC50 H358 pERK

KRASG12-dependent Ba/F3 cells, sequence (P01116 whole entry G12C): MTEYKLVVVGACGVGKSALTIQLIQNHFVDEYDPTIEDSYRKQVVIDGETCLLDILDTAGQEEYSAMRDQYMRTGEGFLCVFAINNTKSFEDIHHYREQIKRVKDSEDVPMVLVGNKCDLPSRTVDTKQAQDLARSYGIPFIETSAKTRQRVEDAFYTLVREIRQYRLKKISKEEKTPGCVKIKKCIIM
T1 sequence (P01116 1-169 isoform P01116-2 G12C/C51S/C80L/C118S): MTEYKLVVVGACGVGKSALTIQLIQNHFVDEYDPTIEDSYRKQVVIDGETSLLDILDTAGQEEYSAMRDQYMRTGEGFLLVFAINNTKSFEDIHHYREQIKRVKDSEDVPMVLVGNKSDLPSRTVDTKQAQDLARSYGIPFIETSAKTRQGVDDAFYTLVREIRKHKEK

SMILES	IC50 ([1]; Table 36)	IC50 [2, 4]	GI50 [3]	IC50 ([2]; read-out: IC50 H358 pERK, ERK phosphorylation assay 1 (values not marked with *), NCI-H358)	IC50 ([1]; Table 40)
C=CC(=O)N1CCN(c2cc(-c3noc(C4(C)CCCc5sc(N)c(C#N)c54)n3)nc(N3CCN(C)C[C@@H]3CC)c2)CC1 (stereo partly shown) [Ia-15]	53 nM	7.3 nM	219 nM	–	–
C=CC(=O)N(C)CCOc1cc(-c2noc([C@@]3(C)CCCc4sc(N)c(C#N)c43)n2)nc(N2CCCN(C)C[C@@H]2C)n1 [Ia-74]	61 nM	–	254 nM	–	–
C=CC(=O)N1CCC(Oc2cc(-c3noc(C4(C)CCCc5sc(N)c(C#N)c54)n3)nc(N3CCN(C)CC3)c2)CC1 (stereo not shown) [Ia-88]	71 nM	–	381 nM	–	–
C=CC(=O)N1CC2(CCN(c3cc(-c4noc([C@@]5(C)CCCc6sc(N)c(C#N)c65)n4)nc(N4CCCN(C)C[C@@H]4C)n3)C2)C1 [Ia-94]	77 nM	–	2290 nM	–	–
C=CC(=O)N1CCC2(C1)CN(c1cc(-c3noc([C@@]4(C)CCCc5sc(N)c(C#N)c54)n3)cc(N3CCCN(C)C[C@@H]3C)n1)C2 [Ia-95]	46 nM	–	946 nM	–	–
C=CC(=O)N1CCC2(CCN(c3cc(-c4noc([C@@]5(C)CCCc6sc(N)c(C#N)c65)n4)nc(N4CCCN(CCCOC)C[C@@H]4C)n3)CC2)C1 [Ia-98]	59 nM	–	662 nM	–	–
C=CC(=O)N1CC(N2CCN(c3cc(-c4noc([C@@]5(C)CCCc6sc(N)c(C#N)c65)n4)nc(N4CCCN(CCCOC)C[C@@H]4C)n3)CC2)C1 [Ia-99]	45 nM	–	1040 nM	–	–
C=CC(=O)N1CCN(C2CN(c3cc(-c4noc([C@@]5(C)CCCc6sc(N)c(C#N)c65)n4)nc(N4CCCN(C)C[C@@H]4C)n3)C2)CC1 [Ia-100]	84 nM	–	2200 nM	–	–
C=CC(=O)N1CCC(Oc2cc(-c3noc(C4(C)CCCc5sc(N)c(C#N)c54)n3)nc(N3CCN(C4CCCC4)CC3)c2)CC1 (stereo not shown) [Ia-111]	418 nM	92.5 nM	–	–	–
C=CC(=O)N1CC[C@@H](Oc2cc(-c3noc([C@@]4(C)CCCc5sc(N)c(C#N)c54)n3)nc(N3CCN(C)CC3)c2)C1 [Ia-112]	73 nM	18.5 nM	–	–	–
C=CC(=O)N1CCN(c2cc(-c3noc(C4(C)CC(F)(F)Cc5sc(N)c(C#N)c54)n3)nc(N3CCN(C)CC3)c2)CC1 (stereo not shown) [Ia-113]	730 nM	376 nM	–	–	–
C=CC(=O)N1CCN(c2cc(-c3noc(C4(C)CCCc5sc(N)c(C#N)c54)n3)nc(N3C[C@@H]4C[C@H]3CN4C3CCCC3)c2)CC1 (stereo partly shown) [Ia-115]	63 nM	8.8 nM	–	–	–
C=CC(=O)N1CC[C@H](Oc2cc(-c3noc(C4(C)CCCc5sc(N)c(C#N)c54)n3)nc(N3CCN(C)CC3)c2)C1 (stereo partly shown) [Ia-117]	468 nM	120 nM	–	–	–
C=CC(=O)N1CCC(Oc2cc(-c3noc(C4(C)CCC(C)c5sc(N)c(C#N)c54)n3)nc(N3CCN(C)CC3)c2)CC1 (stereo not shown) [Ia-120]	405 nM	111 nM	–	–	–
C=CC(=O)N1CCN(c2cc(-c3noc(C4(C)CCCc5sc(N)c(C#N)c54)n3)nc(N3CCN(CC4CC4)CC3)c2)CC1 (stereo not shown) [Ia-121]	50 nM	9.9 nM	–	–	–
C=CC(=O)N1CCN(c2cc(-c3noc(C4(C)CCCc5sc(N)c(C#N)c54)n3)nc(N3CCN(C4CCCC4)CC3)c2)CC1 (stereo not shown) [Ia-122]	71 nM	19.3 nM	–	–	–
C=CC(=O)N1CCCN(c2cc(-c3noc(C4(C)CCCc5sc(N)c(C#N)c54)n3)nc(N3CCN(C)CC3)c2)CC1 (stereo not shown) [Ia-124]	158 nM	76.6 nM	–	–	–
C=CC(=O)N1CCN(c2cc(-c3noc(C4(C)CCCc5sc(N)c(C#N)c54)n3)nc(N3CCN(CCF)CC3)c2)CC1 (stereo not shown) [Ia-125]	232 nM	233 nM	–	–	–
C=CC(=O)N1CCC(Oc2cc(-c3noc(C4(C)CCCc5sc(N)c(C#N)c54)n3)nc(N3CCN(C)CC3)c2)CC1 (stereo not shown) [Ia-141]	71 nM	39.6 nM	–	–	–
C=CC(=O)N1CCN(c2cc(OCCCN(C)C)cc(-c3noc(C4(C)CCCc5sc(N)c(C#N)c54)n3)c2)CC1 (stereo not shown) [Ia-142]	176 nM	36.4 nM	–	–	–
C=CC(=O)N1CC2(CCN(c3cc(-c4noc(C5(C)CCCc6sc(N)c(C#N)c65)n4)nc(N4CCN(C)CC4)c3)C2)C1 (stereo not shown) [Ia-143]	340 nM	1330 nM	–	–	–
C=CC(=O)N1CCN(c2cc(OCCN3CCCC3)cc(-c3noc(C4(C)CCCc5sc(N)c(C#N)c54)n3)c2)CC1 (stereo not shown) [Ia-144]	647 nM	68.7 nM	–	–	–
C=CC(=O)N1CCCC(Oc2cc(-c3noc(C4(C)CCCc5sc(N)c(C#N)c54)n3)nc(N3CCN(C)CC3)c2)CC1 (stereo not shown) [Ia-145]	377 nM	93.5 nM	–	–	–
C=CC(=O)N1CCN(c2cc(-c3noc(C4(C)CCCc5sc(N)c(C#N)c54)n3)nc(N3CCN(CC4CC4)CC3)c2)CC1 (stereo not shown) [Ia-146]	50 nM	–	–	9.9 nM	–
C=CC(=O)N1CCN(c2cc(-c3noc(C4(C)CCCc5sc(N)c(C#N)c54)n3)nc(N3CCN4CCCCC4C3)c2)CC1 (stereo not shown) [Ia-149]	47 nM	8.6 nM	–	–	–
C=CC(=O)N1CCN(c2cc(-c3noc(C4(C)CCCc5sc(N)c(C#N)c54)n3)nc(N3CCN(C(C)C)C(C)C3)c2)CC1 (stereo not shown) [Ia-150]	71 nM	9.5 nM	–	–	–
C=CC(=O)N(C)c1cccc(-c2cc(-c3noc(C4(C)CCCc5sc(N)c(C#N)c54)n3)nc(N3CCN(C)CC3)c2)c1 (stereo not shown) [Ia-151]	1190 nM	182 nM	–	–	–
C=CC(=O)N1CCN(c2cc(-c3noc(C4(C)CCCc5sc(N)c(C#N)c54)n3)nc(N3CCNCC3)c2)CC1 (stereo not shown) [Ia-170]	–	269 nM	–	–	87 nM

Now from value to compound:

IC50 ([1]; Table 36)	IC50 [2, 4]	GI50 [3]	IC50 ([2]; read-out: IC50 H358 pERK, ERK phosphorylation assay 1 (values not marked with *), NCI-H358)	IC50 ([1]; Table 40)	SMILES
1.8 nM	–	10.2 nM	–	–	C=CC(=O)N1CCN(c2cc(-c3noc([C@@]4(C)CCCc5sc(N)c(C#N)c54)n3)nc(N3CCCN(CC4(C)COC4)C[C@@H]3C)n2)CC1 [Ia-41]
1.7 nM	–	2.7 nM	–	–	C=CC(=O)N1CCN(c2cc(-c3noc([C@@]4(C)CCCc5sc(N)c(C#N)c54)n3)nc(N3CCCN([C@@H]4CCOC4)C[C@@H]3C)n2)CC1 [Ia-43]
1.5 nM	–	2.5 nM	–	–	C=CC(=O)N1CCN(c2cc(-c3noc([C@@]4(C)CCCc5sc(N)c(C#N)c54)n3)nc(N3CCCN([C@H]4CCOC4)C[C@@H]3C)n2)CC1 [Ia-44]
3 nM	–	186 nM	–	–	C=CC(=O)N1CCN(c2cc(-c3noc([C@@]4(C)CCCc5sc(N)c(C#N)c54)n3)nc(OC[C@@H]3CCCN3C)n2)CC1 [Ia-47]
1.8 nM	–	18.4 nM	–	–	C=CC(=O)N1CCCN(c2cc(-c3noc([C@@]4(C)CCCc5sc(N)c(C#N)c54)n3)nc(O[C@@H](C)[C@@H]3CCCN3C)n2)CC1 [Ia-52]
16 nM	–	178 nM	–	–	C=CC(=O)N1CCC2(CC1)CN(c1cc(-c3noc([C@@]4(C)CCCc5sc(N)c(C#N)c54)n3)nc(N3CCCN(CCCOC)C[C@@H]3C)n1)C2 [Ia-92]
43 nM	–	967 nM	–	–	C=CC(=O)N1CC2CN(c3cc(-c4noc([C@@]5(C)CCCc6sc(N)c(C#N)c65)n4)nc(N4CCCN(C)C[C@@H]4C)n3)CC2C1 (stereo partly shown) [Ia-97]
44 nM	–	933 nM	–	–	C=CC(=O)N1C[C@@H]2CN(c3cc(-c4noc([C@@]5(C)CCCc6sc(N)c(C#N)c65)n4)nc(N4CCCN(C)C[C@@H]4C)n3)[C@@H]2C1 [Ia-101]
21 nM	7.5 nM	–	–	–	C=CC(=O)N1CCN(c2cc(OC3CCN(C)CC3)nc(-c3noc(C4(C)CCCc5sc(N)c(C#N)c54)n3)c2)CC1 (stereo not shown) [Ia-118]
39 nM	9.5 nM	–	–	–	C=CC(=O)N1CCN(c2cc(-c3noc(C4(C)CCCc5sc(N)c(C#N)c54)n3)nc(N3CCN(CC)CC3)c2)CC1 (stereo not shown) [Ia-123]
30 nM	4.2 nM	–	–	–	C=CC(=O)N1CCN(c2cc(-c3noc([C@@]4(C)CCCc5sc(N)c(C#N)c54)n3)nc(N3CCN(CC)CC3)c2)CC1 [Ia-126]
24 nM	5.9 nM	–	–	–	C=CC(=O)N1CCN(c2cc(-c3noc(C4(C)CCCc5sc(N)c(C#N)c54)n3)nc(N3CCN4CCC[C@H]4C3)c2)CC1 (stereo partly shown) [Ia-148]
43 nM	5.9 nM	–	–	–	C=CC(=O)N1CCN(c2cc(-c3noc(C4(C)CCCc5sc(N)c(C#N)c54)n3)nc(N3CCN(CC)C(C)C3)c2)CC1 (stereo not shown) [Ia-152]
31 nM	11.6 nM	–	–	–	C=CC(=O)N1CCN(c2cc(-c3noc(C4(C)CCCc5sc(N)c(C#N)c54)n3)nc(N3CCN4CCC[C@@H]4C3)c2)CC1 (stereo partly shown) [Ia-153]
